29 molecules from patent publication US20100119599A1 (ARCHER PHARMACEUTICALS, INC., priority 2006, published 2010) can be followed below.

Experiment [1] concerns Aβ1-42. Put plainly: Measurement of Aβ1-42 in culture medium of 7W WT APP751 CHO cells by ELISA. The conditions noted are these: for activity at 5 µM: Cricetulus griseus, Table 1, 5 μM test compound, CHO cells stably transfected with human APP751, culture medium, ELISA, control DMSO, 0 = no detectable amount, read-out: Aβ1-42 (% of control); for Aβ1-42 (% of control): CHO cells that overexpress APP751, zero = below the detection limit of the assay. The experiment is classed as cell-based, Chinese hamster. (In an ELISA, binding on a coated surface is turned into a signal by an enzyme label.)

Experiment [2] has as its system Aβ1-40. Put plainly: Measurement of Aβ1-40 in culture medium of 7W WT APP751 CHO cells by ELISA. The experiment is classed as cell-based, Chinese hamster. The note with it: for activity at 5 µM: Cricetulus griseus, Table 1, 5 μM test compound, CHO cells stably transfected with human APP751, culture medium, ELISA, control DMSO, 0 = no detectable amount; for Aβ1-40 (% of control): CHO cells that overexpress APP751, zero = below the detection limit of the assay.
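Note: 5 µM test compound but RI-coded compounds at 10 µM for 24 hours.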

In the case of `COc1ccc(COC(=O)C2=C(C)NC3=C(C(=O)CCC3)C2c2cccc(C)c2)cc1` (stereo not shown) [ST052354, (4-methoxyphenyl)methyl 2-methyl-4-(3-methylphenyl)-5-oxo-1,4,6,7,8-pentahydroquinoline-3-carboxylate], the activity at 5 µM in experiment [1] worked out at 57.2%; in experiment [2], 95.1%.
For `COc1ccc(COC(=O)C2=C(C)NC3=C(C(=O)CC(C)(C)C3)C2c2ccc(Cl)c([N+](=O)[O-])c2)cc1` (stereo not shown) [ST052357, (4-methoxyphenyl)methyl 4-(4-chloro-3-nitrophenyl)-2,7,7-trimethyl-5-oxo-1,4,6,7,8-pentahydroquinoline-3-carboxylate], the activity at 5 µM in experiment [1] is 23.4%; in experiment [2], 13.3%.
The corresponding values for `COC(=O)C1=C(C)NC2=C(C(=O)CC(C)(C)C2)C1c1ccc(C(F)(F)F)cc1` (stereo not shown) [ST052359, methyl 2,7,7-trimethyl-5-oxo-4-[4-(trifluoromethyl)phenyl]-1,4,6,7,8-pentahydroquinoline-3-carboxylate] are 29.5% and 31%.
The corresponding values for `COC(=O)C1=C(C)NC2=C(C(=O)CC(C)(C)C2)C1c1cccc(OCc2ccccc2)c1` (stereo not shown) [ST052360, methyl 2,7,7-trimethyl-5-oxo-4-[3-(phenylmethoxy)phenyl]-1,4,6,7,8-pentahydroquinoline-3-carboxylate] are 61.6% and 55.7%.
The corresponding values for `COC(=O)C1=C(C)NC2=C(C(=O)CCC2)C1c1ccc(Cl)c([N+](=O)[O-])c1` (stereo not shown) [ST052361, methyl 4-(4-chloro-3-nitrophenyl)-2-methyl-5-oxo-1,4,6,7,8-pentahydroquinoline-3-carboxylate] are 63.2% and 84.1%.
Turning to `COc1ccc(COC(=O)C2=C(C)NC3=C(C(=O)CCC3)C2c2ccc(C(F)(F)F)cc2)cc1` (stereo not shown) [ST052362, (4-methoxyphenyl)methyl 2-methyl-5-oxo-4-[4-(trifluoromethyl)phenyl]-1,4,6,7,8-pentahydroquinoline-3-carboxylate], the values for the activity at 5 µM in experiment [1] and in experiment [2] were 0% and 7.11%, respectively.
The corresponding values for `CCCOC(=O)C1=C(C)NC2=C(C(=O)CCC2)C1c1cc(Br)ccc1OC` (stereo not shown) [ST052364, propyl 4-(5-bromo-2-methoxyphenyl)-2-methyl-5-oxo-1,4,6,7,8-pentahydroquinoline-3-carboxylate] are 13.5% and 27%.
Take `CC1=C(C(=O)OCC(C)C)C(c2cccc3ccccc23)C2=C(CCCC2=O)N1` (stereo not shown) [ST052365, 2-methylpropyl 2-methyl-4-naphthyl-5-oxo-1,4,6,7,8-pentahydroquinoline-3-carboxylate]: the activity at 5 µM was 72.8% in experiment [1] and 59.1% in experiment [2].
On to `CCOC(=O)C1=C(C)N(C)C(C)=C(C(=O)OCC)C1c1ccccn1` [ST052366, ethyl 5-(ethoxycarbonyl)-1,2,6-trimethyl-4-(2-pyridyl)-1,4-dihydropyridine-3-carboxylate], for which the “Aβ1-42 (% of control)” value in experiment [1] is listed as 89.76 % of control. Further, in experiment [2], the “Aβ1-40 (% of control)” value is given as 56.21 % of control.
Take `COC(=O)C1=C(C)NC2=C(C(=O)CCC2)C1c1cc(F)ccc1F` (stereo not shown) [ST052368, methyl 4-(2,5-difluorophenyl)-2-methyl-5-oxo-1,4,6,7,8-pentahydroquinoline-3-carboxylate]: the activity at 5 µM in experiment [1] was 74.2%; in experiment [2], 66.3%.
The corresponding values for `CCOCCOC(=O)C1=C(C)NC2=C(C(=O)CCC2)C1c1coc2ccccc2c1=O` (stereo not shown) [ST052370, 2-ethoxyethyl 2-methyl-5-oxo-4-(4-oxochromen-3-yl)-1,4,6,7,8-pentahydroquinoline-3-carboxylate] are 69.7% and 68.6%.
The corresponding values for `COc1ccc(COC(=O)C2=C(C)NC3=C(C(=O)CCC3)C2c2cccs2)cc1` (stereo not shown) [ST052371, (4-methoxyphenyl)methyl 2-methyl-5-oxo-4-(2-thienyl)-1,4,6,7,8-pentahydroquinoline-3-carboxylate] are 92.5% and 59.8%.
Regarding `COc1ccc(OC)c(C2C(C(=O)OCCc3ccccc3)=C(C)NC3=C2C(=O)CCC3)c1` (stereo not shown) [ST052373, 2-phenylethyl 4-(2,5-dimethoxyphenyl)-2-methyl-5-oxo-1,4,6,7,8-pentahydroquinoline-3-carboxylate], the activity at 5 µM in experiment [1] is 37.4%; in experiment [2] it was 39.4%.
The corresponding values for `CCOc1ccccc1C1C(C(=O)OCCOc2ccccc2)=C(C)NC2=C1C(=O)CC(C)(C)C2` (stereo not shown) [ST052381, 2-phenoxyethyl 4-(2-ethoxyphenyl)-2,7,7-trimethyl-5-oxo-1,4,6,7,8-pentahydroquinoline-3-carboxylate] are 62% and 45.1%.
The corresponding values for `COC(=O)C1=C(C)NC2=C(C(=O)CC(c3cccs3)C2)C1c1cc(OC)ccc1OC` (stereo not shown) [ST052389, methyl 4-(2,5-dimethoxyphenyl)-2-methyl-5-oxo-7-(2-thienyl)-1,4,6,7,8-pentahydroquinoline-3-carboxylate] are 44.9% and 78.3%.
The corresponding values for `CC1=C(C(=O)OCCOc2ccccc2)C(c2coc3ccc(C)cc3c2=O)C2=C(CC(C)(C)CC2=O)N1` (stereo not shown) [ST052392, 2-phenoxyethyl 2,7,7-trimethyl-4-(6-methyl-4-oxochromen-3-yl)-5-oxo-1,4,6,7,8-pentahydroquinoline-3-carboxylate] are 11.9% and 28.1%.
For the molecule `COC(=O)C1=C(C)NC2=C(C(=O)CC(c3cccs3)C2)C1c1cccc(C(F)(F)F)c1` (stereo not shown) [ST052393, methyl 2-methyl-5-oxo-7-(2-thienyl)-4-[3-(trifluoromethyl)phenyl]-1,4,6,7,8-pentahydroquinoline-3-carboxylate], the activity at 5 µM in experiment [1] was 48.2%; in experiment [2], 34.2%.
The corresponding values for `CC1=C(C(=O)OCCc2ccccc2)C(c2ccc(C)o2)C2=C(CC(C)(C)CC2=O)N1` (stereo not shown) [ST052398, 2-phenylethyl 2,7,7-trimethyl-4-(5-methyl(2-furyl))-5-oxo-1,4,6,7,8-pentahydroquinoline-3-carboxylate] are 55.6% and 44.3%.
Consider `CC1=C(C(=O)OCc2ccccc2)C(c2ccccc2Br)C2=C(CCCC2=O)N1` (stereo not shown) [ST052408, phenylmethyl 4-(2-bromophenyl)-2-methyl-5-oxo-1,4,6,7,8-pentahydroquinoline-3-carboxylate], for which the activity at 5 µM in experiment [1] amounted to 63.4%; in experiment [2], 63%.
As to `COC(=O)C1=C(C)NC2=C(C(=O)CC(c3cccs3)C2)C1c1ccc(Cl)c(Cl)c1` (stereo not shown) [ST052414, methyl 4-(3,4-dichlorophenyl)-2-methyl-5-oxo-7-(2-thienyl)-1,4,6,7,8-pentahydroquinoline-3-carboxylate], the activity at 5 µM in experiment [1] amounted to 66.9%; in experiment [2], 70.2%.
On to `CCOc1cccc(C2C(C(=O)OC)=CNC=C2C(=O)OC)c1` [ST052415, methyl 4-(3-ethoxyphenyl)-5-(methoxycarbonyl)-1,4-dihydropyridine-3-carboxylate], for which the “Aβ1-42 (% of control)” value in experiment [1] is reported as 72.15 % of control. Moreover, in experiment [2], the “Aβ1-40 (% of control)” value is listed as 70.57 % of control.
Take `COc1ccc(C2C(C(=O)OCCOc3ccccc3)=C(C)NC3=C2C(=O)CC(C)(C)C3)cc1O` (stereo not shown) [ST052422, 2-phenoxyethyl 4-(3-hydroxy-4-methoxyphenyl)-2,7,7-trimethyl-5-oxo-1,4,6,7,8-pentahydroquinoline-3-carboxylate]: the activity at 5 µM in experiment [1] is 44.8%; in experiment [2], 38.3%.
The corresponding values for `CCCOCCOC(=O)C1=C(C)NC2=C(C(=O)CC(C)(C)C2)C1c1ccc(Br)cc1` (stereo not shown) [ST052437, 2-propoxyethyl 4-(4-bromophenyl)-2,7,7-trimethyl-5-oxo-1,4,6,7,8-pentahydroquinoline-3-carboxylate] are 16.5% and 5.31%.
The corresponding values for `CCCOCCOC(=O)C1=C(C)NC2=C(C(=O)CC(C)(C)C2)C1c1ccc(Cl)c(Cl)c1` (stereo not shown) [ST052446, 2-propoxyethyl 4-(3,4-dichlorophenyl)-2,7,7-trimethyl-5-oxo-1,4,6,7,8-pentahydroquinoline-3-carboxylate] are 45.2% and 58.1%.
Take `CCOC(=O)C1=CN(c2cc(C)ccc2C)C=C(C(=O)OCC)C1c1cccc(OC)c1OC` [ST052450, ethyl 4-(2,3-dimethoxyphenyl)-1-(2,5-dimethylphenyl)-5-(ethoxycarbonyl)-1,4-dihydropyridine-3-carboxylate]: the “Aβ1-42 (% of control)” value in experiment [1] was 12.04 % of control. Further, the “Aβ1-40 (% of control)” value in experiment [2] was 5.249 % of control.
In the case of `CCCOCCOC(=O)C1=C(C)NC2=C(C(=O)CC(C)(C)C2)C1c1ccccc1Cl` (stereo not shown) [ST052454, 2-propoxyethyl 4-(2-chlorophenyl)-2,7,7-trimethyl-5-oxo-1,4,6,7,8-pentahydroquinoline-3-carboxylate], the figures for the activity at 5 µM in experiment [1] and in experiment [2] were 33.2% and 25.6%, respectively.
The corresponding values for `CCSCCOC(=O)C1=C(C)NC2=C(C(=O)CC(C)(C)C2)C1c1cccc(C)c1` (stereo not shown) [ST052457, 2-ethylthioethyl 2,7,7-trimethyl-4-(3-methylphenyl)-5-oxo-1,4,6,7,8-pentahydroquinoline-3-carboxylate] are 63.9% and 38.1%.
For `COCCOC(=O)C1=C(C)NC2=C(C(=O)CCC2)C1c1cc(OC)c(OC)cc1Br` (stereo not shown) [ST052462, 2-methoxyethyl 4-(2-bromo-4,5-dimethoxyphenyl)-2-methyl-5-oxo-1,4,6,7,8-pentahydroquinoline-3-carboxylate], the activity at 5 µM in experiment [1] was determined as 94.3%; in experiment [2], 61.8%.
The corresponding values for `CC1=C(C(=O)OCc2ccccc2)C(c2coc3ccc(Cl)cc3c2=O)C2=C(CCCC2=O)N1` (stereo not shown) [ST052468, phenylmethyl 4-(6-chloro-4-oxochromen-3-yl)-2-methyl-5-oxo-1,4,6,7,8-pentahydroquinoline-3-carboxylate] are 31.9% and 43.9%.
